Test results published in patent US6770596B1, “Fused tricyclic compounds, process for their preparation, and herbicidal compositions containing them” (Ishihara Sangyo Kaisha Ltd., priority 2002, dated 2004).

Columns and labels:
Format in all cases: in vivo
[1] = system: upland rice (Oryza sp., var.Tebonnet, RICE); test: Post-emerge test, crop damage upland rice
In short: (§1)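 Foliar application, track sprayer with flat fan nozzle, 187 l/ha acetone + 0.25% v/v NIS, 8-1000 g ai/ha; plants at 2-3 leaves, sown 8-21 d before. Scored 0-100 at 14 DAA.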

[2] = system: green foxtail (Setaria viridis, SEV); test: Pre-emerge test, green foxtail; settings: 250 g ai/ha, 14 days after application, rating scale 0-100 (0 no damage, 100 complete death)
In short: (§2)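 Greenhouse pre-emergence screen: track-sprayer application of compounds in acetone at 187 l/ha, rates 8 g ai/ha to 1000 g ai/ha, one day after planting in sandy loam pots. Damage scored at 14 days, 0 (none) to 100 (all plants dead).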

[3] = system: common ragweed (Ambrosia artemisiifolia L., AML); test: Pre-emerge test, common ragweed; settings: 250 g ai/ha, 14 days after application, rating scale 0-100 (0 no damage, 100 complete death)
In short: as §2

[4] = system: common ragweed (Ambrosia artemisiifolia L., AML); test: Post-emerge test, common ragweed; settings: 250 g ai/ha, 14 days after application, rating scale 0-100 (0 no damage, 100 complete death)
In short: as §1

[5] = system: upland rice (Oryza sp., var.Tebonnet, RICE); test: Pre-emerge test, crop damage upland rice
In short: (§3)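 Efficacy values are 0–100 phytotoxicity scores (0 no damage, 100 complete death) recorded 14 days post-application. Spray was delivered pre-emergence at 187 l/ha with rates of 8–1000 g ai/ha, using acetone as solvent.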

[6] = system: soybean (Glycine max L., var. Pella 86, SOY); test: Pre-emerge test, crop damage soybean
In short: as §3

[7] = system: johnsongrass (Sorghum halepense, SOH); test: Post-emerge test, johnsongrass; settings: 250 g ai/ha, 14 days after application, rating scale 0-100 (0 no damage, 100 complete death)
In short: as §1

[8] = system: velvetleaf (Abutilon theophrasti, ABT); test: Post-emerge test, velvetleaf; settings: 250 g ai/ha, 14 days after application, rating scale 0-100 (0 no damage, 100 complete death)
In short: as §1

[9] = system: barnyardgrass (Echinachloa crus-galli, ECC); test: Pre-emerge test, barnyardgrass; settings: 250 g ai/ha, 14 days after application, rating scale 0-100 (0 no damage, 100 complete death)
In short: as §2

[10] = system: ivyleaf morningglory (Ipomoea hederacea, IPH); test: Pre-emerge test, ivyleaf morningglory; settings: 250 g ai/ha, 14 days after application, rating scale 0-100 (0 no damage, 100 complete death)
In short: as §2

[11] = system: sicklepod (Cassia obtusifolia, CAO); test: Pre-emerge test, sicklepod; settings: 250 g ai/ha, 14 days after application, rating scale 0-100 (0 no damage, 100 complete death)
In short: as §2

[12] = system: green foxtail (Setaria viridis, SEV); test: Post-emerge test, green foxtail; settings: 250 g ai/ha, 14 days after application, rating scale 0-100 (0 no damage, 100 complete death)
In short: as §1

[13] = system: redroot pigweed (Amaranthus retroflexus, AMR); test: Post-emerge test, redroot pigweed; settings: 250 g ai/ha, 14 days after application, rating scale 0-100 (0 no damage, 100 complete death)
In short: as §1

[14] = system: redroot pigweed (Amaranthus retroflexus, AMR); test: Pre-emerge test, redroot pigweed; settings: 250 g ai/ha, 14 days after application, rating scale 0-100 (0 no damage, 100 complete death)
In short: as §2

[15] = system: ivyleaf morningglory (Ipomoea hederacea, IPH); test: Post-emerge test, ivyleaf morningglory; settings: 250 g ai/ha, 14 days after application, rating scale 0-100 (0 no damage, 100 complete death)
In short: as §1

[16] = system: johnsongrass (Sorghum halepense, SOH); test: Pre-emerge test, johnsongrass; settings: 250 g ai/ha, 14 days after application, rating scale 0-100 (0 no damage, 100 complete death)
In short: as §2

[17] = system: wheat (Triticum aestivum); test: Pre-emerge test, crop damage wheat
In short: as §3

[18] = system: barnyardgrass (Echinachloa crus-galli, ECC); test: Post-emerge test, barnyardgrass; settings: 250 g ai/ha, 14 days after application, rating scale 0-100 (0 no damage, 100 complete death)
In short: as §1

[19] = system: cocklebur (Xanthium strumariunt, XAS); test: Pre-emerge test, cocklebur; settings: 250 g ai/ha, 14 days after application, rating scale 0-100 (0 no damage, 100 complete death)
In short: as §2

[20] = system: cocklebur (Xanthium strumariunt, XAS); test: Post-emerge test, cocklebur; settings: 250 g ai/ha, 14 days after application, rating scale 0-100 (0 no damage, 100 complete death)
In short: as §1

[21] = system: velvetleaf (Abutilon theophrasti, ABT); test: Pre-emerge test, velvetleaf; settings: 250 g ai/ha, 14 days after application, rating scale 0-100 (0 no damage, 100 complete death)
In short: as §2

[22] = system: field corn (Zea mays L., var. Dekalb 535, CORN); test: Post-emerge test, crop damage field corn
In short: as §1

[23] = system: wheat (Triticum aestivum); test: Post-emerge test, crop damage wheat
In short: as §1

[24] = system: large crabgrass (Digitaria sanguinalis, DIS); test: Pre-emerge test, large crabgrass; settings: 250 g ai/ha, 14 days after application, rating scale 0-100 (0 no damage, 100 complete death)
In short: as §2

[25] = system: lambsquarters (Chenopodium album, CHA); test: Pre-emerge test, lambsquarters; settings: 250 g ai/ha, 14 days after application, rating scale 0-100 (0 no damage, 100 complete death)
In short: as §2

[26] = system: soybean (Glycine max L., var. Pella 86, SOY); test: Post-emerge test, crop damage soybean
In short: as §1

[27] = system: sicklepod (Cassia obtusifolia, CAO); test: Post-emerge test, sicklepod; settings: 250 g ai/ha, 14 days after application, rating scale 0-100 (0 no damage, 100 complete death)
In short: as §1

[28] = system: field corn (Zea mays L., var. Dekalb 535, CORN); test: Pre-emerge test, crop damage field corn
In short: as §3

[29] = system: large crabgrass (Digitaria sanguinalis, DIS); test: Post-emerge test, large crabgrass; settings: 250 g ai/ha, 14 days after application, rating scale 0-100 (0 no damage, 100 complete death)
In short: as §1

[30] = system: lambsquarters (Chenopodium album, CHA); test: Post-emerge test, lambsquarters; settings: 250 g ai/ha, 14 days after application, rating scale 0-100 (0 no damage, 100 complete death)
In short: as §1

[31] = post-emerge, 250 g ai/ha, 14 days after application, rating scale 0-100 (0 no damage, 100 complete death)
[32] = pre-emerge, 250 g ai/ha, 14 days after application, rating scale 0-100 (0 no damage, 100 complete death)
[33] = var. Tebonnet, Oryza sp. (upland rice), in vivo, 14 days
[34] = var. Pella 86, Glycine max (soybean), in vivo, 14 days
[35] = Triticum aestivum (wheat), in vivo, 14 days
[36] = var. Dekalb 535, Zea mays (field corn), in vivo, 14 days

| Structure (SMILES) | Pre-emerge Herbicidal Activity SEV (phytotoxicity rating) [2] | Pre-emerge Herbicidal Activity AML (phytotoxicity rating) [3] | Post-emerge Herbicidal Activity AML (phytotoxicity rating) [4] | Post-emerge Herbicidal Activity SOH (phytotoxicity rating) [7] | Post-emerge Herbicidal Activity ABT (phytotoxicity rating) [8] | Pre-emerge Herbicidal Activity ECC (phytotoxicity rating) [9] | Pre-emerge Herbicidal Activity IPH (phytotoxicity rating) [10] | Pre-emerge Herbicidal Activity CAO (phytotoxicity rating) [11] | Post-emerge Herbicidal Activity SEV (phytotoxicity rating) [12] | Post-emerge Herbicidal Activity AMR (phytotoxicity rating) [13] | Pre-emerge Herbicidal Activity AMR (phytotoxicity rating) [14] | Post-emerge Herbicidal Activity IPH (phytotoxicity rating) [15] | Pre-emerge Herbicidal Activity SOH (phytotoxicity rating) [16] | Post-emerge Herbicidal Activity ECC (phytotoxicity rating) [18] | Pre-emerge Herbicidal Activity XAS (phytotoxicity rating) [19] | Post-emerge Herbicidal Activity XAS (phytotoxicity rating) [20] | Pre-emerge Herbicidal Activity ABT (phytotoxicity rating) [21] | Pre-emerge Herbicidal Activity DIS (phytotoxicity rating) [24] | Pre-emerge Herbicidal Activity CHA (phytotoxicity rating) [25] | Post-emerge Herbicidal Activity CAO (phytotoxicity rating) [27] | further results |
| --- | --- | --- | --- | --- | --- | --- | --- | --- | --- | --- | --- | --- | --- | --- | --- | --- | --- | --- | --- | --- | --- |
| CCC1C(=O)Nc2c3c(cc(F)c2-n2c(=O)cc(C(F)(F)F)n(C)c2=O)OCC(=O)N31 (stereo not drawn) [1-4] | 100 | 100 | 80 | 15 | 100 | 100 | 100 | 99 | 60 | 0 | 100 | 90 | 100 | 50 | 100 | 90 | 100 | 100 | 100 | 0 | Post-emerge crop damage RICE (phytotoxicity rating) [1, 31]: 75; Pre-emerge crop damage RICE (phytotoxicity rating) [5, 32]: 99; Pre-emerge crop damage SOY (phytotoxicity rating) [6, 32]: 100; Pre-emerge crop damage WHEAT (phytotoxicity rating) [17, 32]: 100; Post-emerge crop damage CORN (phytotoxicity rating) [22, 31]: 0; Post-emerge crop damage WHEAT (phytotoxicity rating) [23, 31]: 25; Post-emerge crop damage SOY (phytotoxicity rating) [26, 31]: 60; Pre-emerge crop damage CORN (phytotoxicity rating) [28, 32]: 100; Post-emerge Herbicidal Activity DIS (phytotoxicity rating) [29]: 0; Post-emerge Herbicidal Activity CHA (phytotoxicity rating) [30]: 99 |
| CC1C(=O)Nc2c(-c3nn(C)c(OC(F)F)c3Cl)c(F)cc3c2N1C(=O)CO3 (stereo not drawn) [1-26, 8-[4-Chloro-5-(difluoromethoxy)-1-methyl-1H-pyrazole-3-yl)-9-fluoro-5-methyl-5H-pyrazino[1,2,3-de]-1,4-benzoxazine-3,6(2H, 7H)-dione] | 100 | 100 | 99 | 80 | 100 | 100 | 100 | 99 | 100 | 100 | 100 | 100 | 100 | 99 | 99 | 100 | 100 | 100 | 100 | 100 | Post-emerge crop damage RICE (phytotoxicity rating) [1, 33]: 90; Pre-emerge crop damage RICE (phytotoxicity rating) [5, 33]: 100; Pre-emerge crop damage SOY (phytotoxicity rating) [6, 34]: 98; Pre-emerge crop damage WHEAT (phytotoxicity rating) [17, 35]: 98; Post-emerge crop damage CORN (phytotoxicity rating) [22, 36]: 40; Post-emerge crop damage WHEAT (phytotoxicity rating) [23, 35]: 60; Post-emerge crop damage SOY (phytotoxicity rating) [26, 34]: 100; Pre-emerge crop damage CORN (phytotoxicity rating) [28, 36]: 100; Post-emerge Herbicidal Activity DIS (phytotoxicity rating) [29]: 40; Post-emerge Herbicidal Activity CHA (phytotoxicity rating) [30]: 100 |
| CC(C)C1C(=O)Nc2c3c(cc(F)c2-n2c(=O)cc(C(F)(F)F)n(C)c2=O)OCC(=O)N31 (stereo not drawn) [1-77] | 100 | 100 | 0 | 0 | 50 | 100 | 100 | 90 | 0 | 25 | 100 | 75 | 99 | 0 | 98 | 50 | 100 | 100 | 100 | 0 | Post-emerge crop damage RICE (phytotoxicity rating) [1, 31]: 35; Pre-emerge crop damage RICE (phytotoxicity rating) [5, 32]: 99; Pre-emerge crop damage SOY (phytotoxicity rating) [6, 32]: 100; Pre-emerge crop damage WHEAT (phytotoxicity rating) [17, 32]: 99; Post-emerge crop damage CORN (phytotoxicity rating) [22, 31]: 0; Post-emerge crop damage WHEAT (phytotoxicity rating) [23, 31]: 0; Post-emerge crop damage SOY (phytotoxicity rating) [26, 31]: 10; Pre-emerge crop damage CORN (phytotoxicity rating) [28, 32]: 100; Post-emerge Herbicidal Activity DIS (phytotoxicity rating) [29]: 0; Post-emerge Herbicidal Activity CHA (phytotoxicity rating) [30]: 90 |
| Cn1nc(-c2c(F)cc3c4c2NC(=O)C(C)(C)N4C(=O)CO3)c(Cl)c1C(F)(F)F [1-15, 8-[4-Chloro-1-methyl-5-(trifluoromethyl)-1H-pyrazol-3-yl]-5,5-dimethyl-9-fluoro-5H-pyrazino[1,2,3-de]-1,4-benzoxazine-3,6(2H, 7H)-dione] | 100 | 100 | 98 | 55 | 100 | 100 | 100 | 100 | 99 | 100 | 100 | 100 | 100 | 99 | 100 | 100 | 100 | 100 | 100 | 99 | Post-emerge crop damage RICE (phytotoxicity rating) [1, 33]: 80; Pre-emerge crop damage RICE (phytotoxicity rating) [5, 33]: 40; Pre-emerge crop damage SOY (phytotoxicity rating) [6, 34]: 50; Pre-emerge crop damage WHEAT (phytotoxicity rating) [17, 35]: 90; Post-emerge crop damage CORN (phytotoxicity rating) [22, 36]: 35; Post-emerge crop damage WHEAT (phytotoxicity rating) [23, 35]: 50; Post-emerge crop damage SOY (phytotoxicity rating) [26, 34]: 100; Pre-emerge crop damage CORN (phytotoxicity rating) [28, 36]: 60; Post-emerge Herbicidal Activity DIS (phytotoxicity rating) [29]: 50; Post-emerge Herbicidal Activity CHA (phytotoxicity rating) [30]: 100 |
